Measurements reported in patent publication US20250388571A1, “AMP-ACTIVATED PROTEIN KINASE MODULATOR COMPOUNDS AND USES THEREOF” (Biolexis Therapeutics, Inc., priority 2024, published 2025).
Where two headings read alike, the source gives them in different places.

Assays:
[1] = PK oral bioavailability experiment, rat; type: in vivo, male Wistar rat
Method: A total of 18 male Wistar rats were allotted for the study. Animals were allotted in to 2 groups of 9 rat per each group. In each group, first set of three animals were used for PK study, next set of three and followed by other set of three animals were used for 0.5 h and 1 h brain, CSF, and blood collection purpose for intravenous and oral groups, respectively. On day of dosing all the animals were fasted overnight.
Approximately 0.3 mL of blood sample from each animal was collected via jugular vein at predetermined time points at 0.083 (only IV), 0.25, 0.5, 1, 2, 4, 6, 8 and 24 h intervals in pre-labeled Eppendorf tubes containing anticoagulant K2EDTA (20 μL per mL of blood). Blood sample was centrifuged at 5000 rpm for 10 min under refrigeration (2-4° C.) to obtain plasma. For brain and CSF uptake study, after 0.5 h and 1 h CSF and whole brain was withdrawn, and brain tissue was homogenized as a terminal sampling. Blood samples were centrifuged under refrigeration (2-4° C.) within 0.5 h to obtain plasma. The separated plasma samples were collected in pre labeled tubes within 60 min of separation and stored at −20° C. up to 24 h. Post 24 h sample collection, all plasma samples were transferred to deep freezer custodian to store below or at −70° C. till shipment.
Brain tissues were blotted and dried and then transferred to 15 mL falcon tubes. Initially all tissue samples were stored at −20±3° C. Later, all brain tissue samples were homogenized with PBS at 1:4 ratio and the Brain homogenate was transferred to Deep freezer (−70±10° C.) and stored until bioanalysis.
The PK parameters were evaluated using Phoenix WinNonlin® Ent-Version 8.3 by non-compartmental analysis.

db/db mice = conditions: for Plasma Cholesterol / Plasma HDL / Plasma LDL / Plasma Triglyceride: end of the study; for Absolute Liver Weight / Absolute Liver Weight (g) [table follows b2014 on epididymal adipose tissue weight] / Relative Epididymal Tissue Weight / Relative Liver Weight: necropsy; for Fasting Plasma Glucose (mg/dL), OGTT: OGTT day 21, before glucose load 1 gram/kg
Method: The doses of the test item to be administered were calculated daily in mg/kg based on the latest bodyweight of the animal. The dose volume was calculated based on mg/kg of body weight and adjusted with each bodyweight collection. Dose and route of the test compounds administration are selected as per the supporting literature.
Male db/db mice were procured from The Jackson Laboratory. All the animals were allowed to quarantine for 7 days and acclimatize for one day prior to experiment initiation. During this period, mice were observed daily once for clinical signs. On Day 1, Animals were randomized based on body weight and blood glucose levels (Accu-Chek) into three groups. […] During the study period the body weight of mice was recorded weekly thrice, and clinical scoring was done on daily basis. The OGTT was performed on day 21. On day 36 blood was collected and centrifuged at 4° C., 10,000 RPM for 10 minutes for plasma collection. The plasma stored at −80° C. for estimation of plasma HDL and LDL. All the animals were humanely sacrificed by CO2. At the time of necropsy liver, adipose tissue and pancreas weight were taken. The liver and pancreas were stored at −80° C.
A mixture of DMSO (2%), Cremophor EL (2%), Tween 80 (1%), 0.5% methyl cellulose (35%), and water (60%) was used for the formulation. Doses were prepared at concentrations of 30 and 50 mg/kg. Administration was oral, daily for 36 days. Male mice (Mus musculus; db/db C57BL/6) aged 8-9 weeks and weighing less than or equal to 40 grams were used for the study. Groups were assigned 10 mice per group.
During the study period body weight of mice were recorded weekly thrice and clinical scoring were done on daily basis. The OGTT was performed on day 21. On day 36 blood was collected and centrifuged at 4° C., 10000 RPM for 10 minutes for plasma collection. The plasma stored at −80° C. for estimation of plasma HDL and LDL. All the animals were humanely sacrificed by CO2. At the time of necropsy liver, adipose tissue and pancreas weight were taken. Liver and pancreas were stored at −80° C.
Cage-side observations were made to detect any changes and general activity of the animals.
Body weight of each mouse was recorded at the time of randomization and thrice a week during study period. OGTT were done at day 21. On day 20 mice were fasted over night and on day 21 mice were treated with respective treatment-60 minute prior to glucose load 1 gram/kg. Plasma glucose was measured at 0 min (before glucose load), 15 min, 30 min, 60 min, 90 min and 120 min.
Glucose estimation in urine was done at terminal point on day 32. The urine of individual mice was collected by placing the mice in metabolic cages. Urine glucose levels were measured by calorimetric method in collected urine.
Plasma lipid profile: Triglyceride, HDL and LDL were performed at the end of the study by appropriate kit or using Fully Auto Biochemistry Analyzer Selectra PRO M Lite. Fat pad weight was recorded at terminal point. Fructosamine were measured by ELISA kit (Biomol, G-MOEB2562.96).
All data is expressed as mean±SEM unless otherwise noted. Statistical analysis was done with GraphPad Prism-5 using one-way ANOVA followed by Dunnett's test/Tukey's post hoc test. Data were considered statistically significant if P value is less than 0.05.

O=c1[nH]c(-c2c[nH]c3cc(F)c(-c4ccc(C5(O)CCC5)cc4)c(F)c23)no1 [Compound I-11, 3-(4,6-difluoro-5-(4-(1-hydroxycyclobutyl)phenyl)-1H-indol-3-yl)-1,2,4-oxadiazol-5(4H)-one]
systemic exposure following oral administration ([1]; 5 mg/kg oral): low systemic exposure
concentrations in brain tissue ([1]; 0.5 h and 1 h): no concentrations in brain tissue
bioavailability ([1]; male, Wistar, plasma, 5 mg/kg oral vs 1 mg/kg intravenous): 6%
Fasting Fructosamine (db/db mice; 30 mg/kg p.o. QD): 1164.8 ± 105.5 ng/mL
Fasting Plasma HbA1c (db/db mice; 30 mg/kg p.o. QD): 60.13 ± 7.73 ng/mL
Fasting Plasma Insulin (db/db mice; 30 mg/kg p.o. QD): 4.6 ± 0.5 ng/mL
Fasting Blood Glucose (~12 hrs) (db/db mice; 30 mg/kg p.o. QD, Day 36): 335.70 ± 16.88 mg/dL
Urine Glucose (db/db mice; 30 mg/kg p.o. QD, day 32): 1694.43 ± 10.56 mg/dL
Plasma Cholesterol (db/db mice; 30 mg/kg p.o. QD): 118.13 ± 8.39 mg/dL
Plasma HDL (db/db mice; 30 mg/kg p.o. QD): 145.41 ± 11.48 mg/dL
Plasma LDL (db/db mice; 30 mg/kg p.o. QD): 23.58 ± 2.93 mg/dL
Plasma Triglyceride (db/db mice; 30 mg/kg p.o. QD): 156.87 ± 17.41 mg/dL
Absolute Liver Weight (db/db mice; 30 mg/kg p.o. QD): 2.34 ± 0.07 g
Absolute Liver Weight (g) [table follows b2014 on epididymal adipose tissue weight] (db/db mice; 30 mg/kg p.o. QD): 2.42 ± 0.10 g
Relative Epididymal Tissue Weight (db/db mice; 30 mg/kg p.o. QD): 0.057 ± 0.002 g
Relative Liver Weight (db/db mice; 30 mg/kg p.o. QD): 0.055 ± 0.001 g
15 min Plasma Glucose (mg/dL), OGTT (db/db mice; 30 mg/kg, OGTT day 21): 676.20 ± 19.94 mg/dL
30 min Plasma Glucose (mg/dL), OGTT (db/db mice; 30 mg/kg, OGTT day 21): 619.54 ± 26.68 mg/dL
60 min Plasma Glucose (mg/dL), OGTT (db/db mice; 30 mg/kg, OGTT day 21): 520.87 ± 46.63 mg/dL
120 min Plasma Glucose (mg/dL), OGTT (db/db mice; 30 mg/kg, OGTT day 21): 397.78 ± 9.65 mg/dL
glucose area under the curve (AUC), OGTT (db/db mice; 30 mg/kg, OGTT day 21): 61613.10 ± 2572.98 mg·min/dL
Fasting Plasma Glucose (mg/dL), OGTT (db/db mice; 30 mg/kg): 287.70 ± 34.54 mg/dL
decrease in the plasma glucose compared to vehicle control (OGTT) (db/db mice; 30 mg/kg, statistically not significant): 7.5%
Fasting Fructosamine (db/db mice; 50 mg/kg p.o. QD): 954.2 ± 45.6 ng/mL
Fasting Plasma HbA1c (db/db mice; 50 mg/kg p.o. QD): 39.82 ± 4.31 ng/mL
Fasting Plasma Insulin (db/db mice; 50 mg/kg p.o. QD): 5.2 ± 0.8 ng/mL
Plasma Cholesterol (db/db mice; 50 mg/kg p.o. QD): 97.30 ± 8.76 mg/dL
Plasma HDL (db/db mice; 50 mg/kg p.o. QD): 110.76 ± 9.17 mg/dL
Plasma LDL (db/db mice; 50 mg/kg p.o. QD): 14.78 ± 1.62 mg/dL
Plasma Triglyceride (db/db mice; 50 mg/kg p.o. QD): 97.55 ± 11.60 mg/dL
Absolute Liver Weight (db/db mice; 50 mg/kg p.o. QD): 2.34 ± 0.06 g
Absolute Liver Weight (g) [table follows b2014 on epididymal adipose tissue weight] (db/db mice; 50 mg/kg p.o. QD): 2.58 ± 0.07 g
Relative Epididymal Tissue Weight (db/db mice; 50 mg/kg p.o. QD): 0.061 ± 0.001 g
Relative Liver Weight (db/db mice; 50 mg/kg p.o. QD): 0.056 ± 0.001 g
15 min Plasma Glucose (mg/dL), OGTT (db/db mice; 50 mg/kg, OGTT day 21): 670.72 ± 23.88 mg/dL
30 min Plasma Glucose (mg/dL), OGTT (db/db mice; 50 mg/kg, OGTT day 21): 560.85 ± 37.42 mg/dL
60 min Plasma Glucose (mg/dL), OGTT (db/db mice; 50 mg/kg, OGTT day 21): 485.98 ± 32.31 mg/dL
120 min Plasma Glucose (mg/dL), OGTT (db/db mice; 50 mg/kg, OGTT day 21): 378.40 ± 18.24 mg/dL
glucose area under the curve (AUC), OGTT (db/db mice; 50 mg/kg, OGTT day 21): 57436.00 ± 2283.79 mg·min/dL
Fasting Plasma Glucose (mg/dL), OGTT (db/db mice; 50 mg/kg): 204.64 ± 29.60 mg/dL
decrease in the plasma glucose compared to vehicle control (OGTT) (db/db mice; 50 mg/kg, significant): 14%
fasting blood glucose levels compared with vehicle control, dose dependence (db/db mice; 30 & 50 mg/kg p.o. QD, day 21, 28, and 36): dose-dependent decrease
clinical signs, morbidity, mortality (db/db mice; 30 and 50 mg/kg oral, daily for 36 days): no observations of clinical signs or morbidity, and no mortality
glucose as measured by area under the curve (AUC), dose dependence (db/db mice; 30 and 50 mg/kg, OGTT day 21): dose dependent decreases
